From paper PMC8425678, “1-Oxo-3,4-dihydroisoquinoline-4-carboxamides as novel druglike inhibitors of poly(ADP-ribose) polymerase (PARP) with favourable ADME characteristics” (Journal of Enzyme Inhibition and Medicinal Chemistry, 2021)
Entries after “also recorded” stand apart in the source; their conditions may differ.

Key:
PARP1 = target: T1, PARP1 (Homo sapiens, UniProt P09874); assay: PARP1 colorimetric activity assay kit (BPS Bioscience); type: biochemical; details: for inhibition at 1 µM: read-out: PARP1 % inhibition at 1 µM, 1 µM compound, triplicate (n = 3); for PARP1 inhibitory potency in words: compared with 3l; for IC50: dose-response, mean (n = 3) ± SD, r^2 in brackets
T1 construct: purchased BPS Bioscience (San Diego, CA)
Procedure: (§1) The thirty-six 1-oxo-3,4-dihydroisoquinoline-4-carboxamides 3a-aj and 1-oxoisoquinoline-4-carboxamide 11 were tested for inhibitory activity towards PARP1 and PARP2 using the commercially available colorimetric activity assay kit from BPS Bioscience (San Diego, CA) in full accordance of the supplier’s method description[13]^,[14]. The initial screening was performed against PARP1 at 1 µM concentration of each compound, in triplicate (n = 3) measurements.

PARP2 = target: T2, PARP2 (Homo sapiens, UniProt Q9UGN5); assay: PARP2 colorimetric activity assay kit (BPS Bioscience); type: biochemical; details: for IC50: dose-response, mean (n = 3) ± SD, r^2 in brackets
T2 construct: purchased BPS Bioscience (San Diego, CA)
Procedure: as §1

T1 sequence (P09874 whole entry): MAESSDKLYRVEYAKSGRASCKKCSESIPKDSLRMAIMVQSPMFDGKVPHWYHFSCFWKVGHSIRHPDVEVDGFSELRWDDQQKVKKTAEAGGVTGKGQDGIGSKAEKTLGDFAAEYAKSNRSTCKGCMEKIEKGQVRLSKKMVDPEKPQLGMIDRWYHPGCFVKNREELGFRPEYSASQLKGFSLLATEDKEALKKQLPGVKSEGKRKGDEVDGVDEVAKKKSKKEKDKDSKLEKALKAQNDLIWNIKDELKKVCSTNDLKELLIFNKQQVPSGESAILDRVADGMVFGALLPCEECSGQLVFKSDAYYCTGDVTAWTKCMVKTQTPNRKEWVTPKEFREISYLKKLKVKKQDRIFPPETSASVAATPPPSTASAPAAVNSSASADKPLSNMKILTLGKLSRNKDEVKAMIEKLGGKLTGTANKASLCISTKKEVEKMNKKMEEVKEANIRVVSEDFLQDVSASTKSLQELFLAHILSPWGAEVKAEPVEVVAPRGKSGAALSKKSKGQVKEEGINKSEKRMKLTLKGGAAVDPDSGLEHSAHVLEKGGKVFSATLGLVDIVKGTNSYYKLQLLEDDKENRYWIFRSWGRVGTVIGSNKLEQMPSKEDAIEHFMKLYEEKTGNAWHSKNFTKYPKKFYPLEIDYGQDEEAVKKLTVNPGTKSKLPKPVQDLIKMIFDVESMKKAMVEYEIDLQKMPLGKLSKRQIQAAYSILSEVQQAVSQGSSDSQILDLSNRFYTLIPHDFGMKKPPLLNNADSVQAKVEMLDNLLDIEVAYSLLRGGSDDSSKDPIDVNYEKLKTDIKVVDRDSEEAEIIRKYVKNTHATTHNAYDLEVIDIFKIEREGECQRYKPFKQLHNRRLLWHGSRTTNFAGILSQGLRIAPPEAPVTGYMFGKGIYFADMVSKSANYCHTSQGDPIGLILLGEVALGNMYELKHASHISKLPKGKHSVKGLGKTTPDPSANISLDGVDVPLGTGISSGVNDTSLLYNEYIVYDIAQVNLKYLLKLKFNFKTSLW
T2 sequence (Q9UGN5 whole entry): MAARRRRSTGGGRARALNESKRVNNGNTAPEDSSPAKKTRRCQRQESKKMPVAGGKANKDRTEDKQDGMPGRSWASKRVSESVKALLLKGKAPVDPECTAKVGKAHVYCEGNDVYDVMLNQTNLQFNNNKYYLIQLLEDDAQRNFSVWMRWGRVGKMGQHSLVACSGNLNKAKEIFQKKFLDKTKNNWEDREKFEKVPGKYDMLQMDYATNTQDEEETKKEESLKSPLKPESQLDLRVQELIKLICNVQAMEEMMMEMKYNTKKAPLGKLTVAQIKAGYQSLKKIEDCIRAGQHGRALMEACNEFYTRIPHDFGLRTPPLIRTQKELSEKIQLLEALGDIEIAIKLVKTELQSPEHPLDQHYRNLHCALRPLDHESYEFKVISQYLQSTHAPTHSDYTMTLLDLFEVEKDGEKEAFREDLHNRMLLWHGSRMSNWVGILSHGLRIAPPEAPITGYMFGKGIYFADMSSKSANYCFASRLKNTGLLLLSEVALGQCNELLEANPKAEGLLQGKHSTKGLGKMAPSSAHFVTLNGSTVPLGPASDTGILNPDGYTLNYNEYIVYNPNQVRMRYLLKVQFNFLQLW

Row | SMILES | melting point | inhibition at 1 µM (PARP1) | also measured
1 | CN(Cc1ccccc1)C(=O)C1CNC(=O)c2ccccc21 (stereo not shown) [Compound 3c, N-Benzyl-N-methyl-1-oxo-1,2,3,4-tetrahydroisoquinoline-4-carboxamide] | 148 to 149 °C | 18.6 ± 13.2% | –
2 | O=C1NCC(C(=O)N2CCC(N3CCOCC3)CC2)c2ccccc21 (stereo not shown) [Compound 3v, 4–(4-Morpholinopiperidine-1-carbonyl)-3,4-dihydroisoquinolin-1(2H)-one] | – | 33.2 ± 4.8% | PARP1 inhibitory potency in words (PARP1): significantly less potent; also recorded: inactive
3 | CCN1CCN(C(=O)C2CNC(=O)c3ccccc32)CC1 (stereo not shown) [Compound 3f, 4–(4-ethylpiperazine-1-carbonyl)-3,4-dihydroisoquinolin-1(2H)-one] | – | 26.2 ± 9.7% | –
4 | O=C1NCC(C(=O)N2CCc3ccccc3C2)c2ccccc21 (stereo not shown) [Compound 3e, 4–(1,2,3,4-Tetrahydroisoquinoline-2-carbonyl)-3,4-dihydroisoquinolin-1(2H)-one] | 222 to 223 °C | 56 ± 7.5% | –
5 | O=C1NCC(C(=O)N2CCN(C3CCCCCC3)CC2)c2ccccc21 (stereo not shown) [Compound 3z, 4–(4-Cycloheptylpiperazine-1-carbonyl)-3,4-dihydroisoquinolin-1(2H)-one] | 207 to 208 °C | 45.2 ± 7.4% | –
6 | O=C1NCC(C(=O)N2CCNCC2)c2ccccc21 (stereo not shown) [Compound 3w, 4-(Piperazine-1-carbonyl)-3,4-dihydroisoquinolin-1(2H)-one] | – | 66.9 ± 1.5% | –
7 | O=C(c1c[nH]c(=O)c2ccccc12)N1CCC(N2CCCCC2)CC1 [Compound 11, 4-([1,4'-Bipiperidine]-1'-carbonyl)isoquinolin-1(2H)-one] | 171 to 174 °C | 49.1 ± 2.6% | fold lower potency compared to 3l or 3aa (PARP1; 3,4-dehydro analog vs 3l / 3aa): approximately 10 fold
8 | COC1CCN(C2CCN(C(=O)C3CNC(=O)c4cc(F)ccc43)CC2)CC1 (stereo not shown) [Compound 3aj, 7-Fluoro-4–(4-methoxy-[1,4'-bipiperidine]-1'-carbonyl)-3,4-dihydroisoquinolin-1(2H)-one] | 186 to 187 °C | 90.5 ± 0.1% | SI, selectivity index (PARP2 over PARP1) (PARP2): 6.05; IC50 (PARP2): 44.1 ± 3.9 nM; IC50 (PARP1): 266 ± 25 nM
9 | O=C1NCC(C(=O)NCc2ccc(N3CCCCC3)cc2)c2ccccc21 (stereo not shown) [Compound 3s, 1-oxo-N-(4-(piperidin-1-yl)benzyl)-1,2,3,4-tetrahydroisoquinoline-4-carboxamide] | 235 to 236 °C | 12.5 ± 8.5% | –
10 | O=C1NCC(C(=O)NCc2ccc(F)cc2)c2ccccc21 (stereo not shown) [Compound 3p, N-(4-Fluorobenzyl)-1-oxo-1,2,3,4-tetrahydroisoquinoline-4-carboxamide] | 188 to 189 °C | 27.2 ± 4.3% | –
11 | O=C1NCC(C(=O)N2CCN(C3CCCC3)CC2)c2ccccc21 (stereo not shown) [Compound 3x, 4–(4-Cyclopentylpiperazine-1-carbonyl)-3,4-dihydroisoquinolin-1(2H)-one] | 177 to 178 °C | 44.6 ± 2.9% | –
12 | O=C1NCC(C(=O)N2CCN(C3CCCCC3)CC2)c2ccccc21 (stereo not shown) [Compound 3y, 4–(4-Cyclohexylpiperazine-1-carbonyl)-3,4-dihydroisoquinolin-1(2H)-one] | 197 to 198 °C | 54.5 ± 4.6% | PARP1 inhibitory potency in words (PARP1): significantly less potent; PARP1 inhibitory potency in words (PARP1; listed as 3 y): inactive
13 | O=C1NCC(C(=O)N2CCSCC2)c2ccccc21 (stereo not shown) [Compound 3o, 4-(Thiomorpholine-4-carbonyl)-3,4-dihydroisoquinolin-1(2H)-one] | 171 to 172 °C | 47.4 ± 3.7% | –
14 | Cc1ccc(S(=O)(=O)N2CCN(C(=O)C3CNC(=O)c4ccccc43)CC2)cc1 (stereo not shown) [Compound 3i, 4–(4-Tosylpiperazine-1-carbonyl)-3,4-dihydroisoquinolin-1(2H)-one] | 228 to 229 °C | 28.9 ± 5.5% | –
15 | CC1(C)CCCN(C2CCN(C(=O)C3CNC(=O)c4cc(F)ccc43)CC2)C1 (stereo not shown) [Compound 3af, 4–(3,3-Dimethyl-[1,4'-bipiperidine]-1'-carbonyl)-7-fluoro-3,4-dihydroisoquinolin-1(2H)-one] | 182 to 183 °C | 96.9 ± 0.5% | SI, selectivity index (PARP2 over PARP1) (PARP2): 5.05; IC50 (PARP2): 19.4 ± 3.7 nM; IC50 (PARP1): 95.6 ± 11.5 nM
16 | O=C1NCC(C(=O)N2CCCC2)c2ccccc21 (stereo not shown) [Compound 3m, 4-(Pyrrolidine-1-carbonyl)-3,4-dihydroisoquinolin-1(2H)-one] | – | 31.2 ± 3.4% | –
17 | O=C1NCC(C(=O)N2CCOCC2)c2ccccc21 (stereo not shown) [Compound 3j, 4-(Morpholine-4-carbonyl)-3,4-dihydroisoquinolin-1(2H)-one] | – | 57.6 ± 5.8% | –

Row | SMILES | melting point | inhibition at 1 µM (PARP1) | also measured
18 | CCOC(=O)N1CCN(C(=O)C2CNC(=O)c3ccccc32)CC1 (stereo not shown) [Compound 3a, Ethyl 4–(1-oxo-1,2,3,4-tetrahydroisoquinoline-4-carbonyl)piperazine-1-carboxylate] | – | 26.3 ± 7.7% | –
19 | CN1CCN(C(=O)C2CNC(=O)c3ccccc32)CC1 (stereo not shown) [Compound 3h, 4–(4-Methylpiperazine-1-carbonyl)-3,4-dihydroisoquinolin-1(2H)-one] | 163 to 164 °C | 27.3 ± 6% | –
20 | CC1(C)CCN(C2CCN(C(=O)C3CNC(=O)c4cc(F)ccc43)CC2)CC1 (stereo not shown) [Compound 3ag, 4–(4,4-Dimethyl-[1,4'-bipiperidine]-1'-carbonyl)-7-fluoro-3,4-dihydroisoquinolin-1(2H)-one] | 200 to 201 °C | 95 ± 0.9% | SI, selectivity index (PARP2 over PARP1) (PARP2): 4.63; IC50 (PARP2): 22 ± 5.6 nM; IC50 (PARP1): 102 ± 9.4 nM
21 | O=C1NCC(C(=O)N2CCC(N3CCC(F)(F)CC3)CC2)c2ccc(F)cc21 (stereo not shown) [Compound 3ah, 4–(4,4-Difluoro-[1,4'-bipiperidine]-1'-carbonyl)-7-fluoro-3,4-dihydroisoquinolin-1(2H)-one] | – | 81.9 ± 1.8% | SI, selectivity index (PARP2 over PARP1) (PARP2): 4.46; IC50 (PARP2): 83.1 ± 6.9 nM; IC50 (PARP1): 371 ± 42 nM
22 | CCOC(=O)C1CCN(C(=O)C2CNC(=O)c3ccccc32)CC1 (stereo not shown) [Compound 3g, Ethyl 1–(1-oxo-1,2,3,4-tetrahydroisoquinoline-4-carbonyl)piperidine-4-carboxylate] | 120 to 121 °C | 47.6 ± 4.1% | –
23 | O=C1NCC(C(=O)NCc2ccc(Cl)cc2)c2ccccc21 (stereo not shown) [Compound 3d, N-(4-Chlorobenzyl)-1-oxo-1,2,3,4-tetrahydroisoquinoline-4-carboxamide] | – | 7.4 ± 8.7% | –
24 | O=C1NCC(C(=O)N2CCN(Cc3ccc(F)cc3)CC2)c2ccccc21 (stereo not shown) [Compound 3t, 4–(4–(4-Fluorobenzyl)piperazine-1-carbonyl)-3,4-dihydroisoquinolin-1(2H)-one] | – | 43.3 ± 5.9% | –
25 | O=C1NCC(C(=O)N2CCCCCC2)c2ccccc21 (stereo not shown) [Compound 3n, 4-(Azepane-1-carbonyl)-3,4-dihydroisoquinolin-1(2H)-one] | – | 35.4 ± 5.1% | –
26 | O=C1NCC(C(=O)N2CCC(N3CCC(F)CC3)CC2)c2ccc(F)cc21 (stereo not shown) [Compound 3ai, 7-Fluoro-4–(4-fluoro-[1,4'-bipiperidine]-1'-carbonyl)-3,4-dihydroisoquinolin-1(2H)-one] | – | 93.7 ± 0.8% | SI, selectivity index (PARP2 over PARP1) (PARP2): 3.52; IC50 (PARP2): 42 ± 2.3 nM; IC50 (PARP1): 148 ± 17 nM
27 | O=C1NCC(C(=O)N2CCC(Cc3ccccc3)CC2)c2ccccc21 (stereo not shown) [Compound 3k, 4–(4-Benzylpiperidine-1-carbonyl)-3,4-dihydroisoquinolin-1(2H)-one] | 191 to 192 °C | 45.1 ± 1.7% | –
28 | CCN(CC)C1CCN(C(=O)C2CNC(=O)c3cc(F)ccc32)CC1 (stereo not shown) [Compound 3ad, 4–(4-(Diethylamino)piperidine-1-carbonyl)-7-fluoro-3,4-dihydroisoquinolin-1(2H)-one] | 134 to 135 °C | 92.6 ± 1.1% | SI, selectivity index (PARP2 over PARP1) (PARP2): 3.23; IC50 (PARP2): 40.4 ± 5.8 nM; IC50 (PARP1): 128 ± 7.1 nM
29 | O=C1NCC(C(=O)N2CCC3(CCCCO3)CC2)c2ccccc21 (stereo not shown) [Compound 3r, 4–(1-Oxa-9-azaspiro[5.5]undecane-9-carbonyl)-3,4-dihydroisoquinolin-1(2H)-one] | – | 28.5 ± 7.1% | –
30 | COc1ccccc1N1CCN(C(=O)C2CNC(=O)c3ccccc32)CC1 (stereo not shown) [Compound 3q, 4–(4-(2-Methoxyphenyl)piperazine-1-carbonyl)-3,4-dihydroisoquinolin-1(2H)-one] | 155 to 156 °C | 32.9 ± 2.4% | –
31 | O=C1NCC(C(=O)N2CCN(Cc3ccccc3F)CC2)c2ccccc21 (stereo not shown) [Compound 3u, 4–(4-(2-Fluorobenzyl)piperazine-1-carbonyl)-3,4-dihydroisoquinolin-1(2H)-one] | – | 31.9 ± 2% | –
32 | O=C1NCC(C(=O)N2CCC(N3CCCC3)CC2)c2ccc(F)cc21 (stereo not shown) [Compound 3ac, 7-Fluoro-4–(4-(pyrrolidin-1-yl)piperidine-1-carbonyl)-3,4-dihydroisoquinolin-1(2H)-one] | 141 to 142 °C | 95.8 ± 0.7% | SI, selectivity index (PARP2 over PARP1) (PARP2): 2.3; IC50 (PARP2): 29.6 ± 6.1 nM; IC50 (PARP1): 69.5 ± 8.8 nM
33 | O=C1NCC(C(=O)N2CCC(N3CCCCCC3)CC2)c2ccc(F)cc21 (stereo not shown) [Compound 3ae, 4-(4-(Azepan-1-yl)piperidine-1-carbonyl)-7-fluoro-3,4-dihydroisoquinolin-1(2H)-one] | 179 to 180 °C | 96.6 ± 0.3% | SI, selectivity index (PARP2 over PARP1) (PARP2): 2.61; IC50 (PARP2): 20.6 ± 2.5 nM; IC50 (PARP1): 55 ± 9.9 nM
34 | CC1CCN(C(=O)C2CNC(=O)c3ccccc32)CC1 (stereo not shown) [Compound 3b, 4–(4-Methylpiperidine-1-carbonyl)-3,4-dihydroisoquinolin-1(2H)-one] | – | 42.7 ± 0.9% | –
